Source: patent US20200377496A1, “INDOLE AND BENZIMIDAZOLE DERIVATIVES AS DUAL 5-HT2A and 5-HT6 RECEPTOR ANTAGONISTS” (ADAMED PHARMA, S.A., priority 2018, published 2020)
Like-named read-outs stand apart in the source and are kept apart here.

How the values were obtained:
human GPCR 5-HT2A = human GPCR 5-HT2A (Homo sapiens, UniProt P28223); experiment: Cellular aequorin-based functional assay, 5-HT2A; type: cell-based; conditions: for 5-HT2A AGO EC50 [nM]: agonist mode, CHO-K1 aequorin cells
Protocol: (§1) Preparation of Solutions of Test and Reference Compounds.
(§2) 1 mM stock solutions of the tested compounds were prepared in DMSO. Serial dilutions were prepared in 96-well microplate in assay buffers using automated pipetting system epMotion 5070 (Eppendorf). Two independent experiments in duplicates were performed and 6 to 10 concentrations were tested.
(§3) 5-HT2A and 5-HT6 Functional Activity Assays.
(§4) Cellular aequorin-based functional assays were performed with γ-irradiated recombinant CHO-K1 cells expressing mitochondrially-targeted Aequorin, human GPCR (5-HT2A or 5-HT6) and the promiscuous G protein α16 (PerkinElemer). Assays were performed according to the standard protocol provided by the manufacturer. After thawing, cells were transferred to assay buffer (DMEM/HAM's F12 with 0.1% protease-free BSA) and centrifuged. Cell pellet was resuspended in assay buffer and coelenterazine h was added at final concentrations of 5 μM. Cell suspension was incubated at 21° C., protected from light with constant agitation, for 4 hours and then diluted with assay buffer to a concentration of 250,000 cells/ml. After 1 hour incubation 50 yl cell suspension was dispensed using automatic injectors built in radiometric and luminescence plate counter MicroBeta2 LumiJET (PerkinElmer, USA) into white opaque 96-well microplate preloaded with tested compounds. Immediate light emission generated following calcium mobilization was recorded for 30-60 seconds. In antagonist mode, after 15-30 minutes incubation reference agonist was added to the above assay mix and light emission was recorded again. Final concentration of reference agonist was equal EC80: serotonin 40 nM for 5-HT6 receptor and α-methylserotonin 30 nM for 5-HT2A receptor. The assays were performed in the agonist mode (5-HT6 AGO and 5-HT2A AGO) as well as antagonist mode (5-HT6 ANT and 5-HT2A ANT).
(§5) IC50 and EC50 were determined by non-linear regression analysis using GraphPad Prism 6.0 software. The log IC50 was used to obtain the Kb by applying the Cheng-Prusoff approximation.

human GPCR 5-HT6 = human GPCR 5-HT6 (Homo sapiens, UniProt P50406); experiment: Cellular aequorin-based functional assay, 5-HT6; type: cell-based; conditions: for 5-HT6 AGO EC50 [nM]: agonist mode, CHO-K1 aequorin cells; for Kb: antagonist mode, reference agonist serotonin 40 nM (EC80), read-out: 5-HT6 ANT Kb
Protocol: as §1, §2, §3, §4, §5

5-HT6 receptors [1] = target: T1, 5-HT6 receptors (Homo sapiens, UniProt P50406); experiment: 5-HT6 receptor binding assay ([3H]-LSD radioligand); conditions: membranes from CHO-K1 cells with human 5-HT6 receptor, [3H]-LSD 1 nM
Protocol: as §1
(§6) 1 mM stock solutions of tested compounds were prepared in DMSO. Serial dilutions of compounds were prepared in 96-well microplate in assay buffers using automated pipetting system epMotion 5070 (Eppendorf). Each compound was tested in 10 concentrations from 1.0E-6 to 1.0E-11 M (final concentration).
5-HT6 Receptor Binding Assay.
Radioligand binding was performed using membranes from CHO-K1 cells stably transfected with the human 5-HT6 receptor (PerkinElmer). All assays were carried out in duplicates. 50 μl working solution of the tested compounds, 50 μl [3H]-LSD (final concentration 1 nM) and 150 μl diluted membranes (8 μg protein per well) prepared in assay buffer (50 mM Tris, pH 7.4, 10 mM MgCl2, 0.1 mM EDTA) were transferred to polypropylene 96 well microplate using 96-wells pipetting station Rainin Liquidator (MettlerToledo). Methiothepin (10 μM) was used to define nonspecific binding. Microplate was covered with a sealing tape, mixed and incubated for 60 minutes at 37° C. The reaction was terminated by rapid filtration through GF/A filter mate presoaked with 0.5% polyethyleneimine for 30 minutes. Ten rapid washes with 200 μl 50 mM Tris buffer (4° C., pH 7.4) were performed using automated harvester system Harvester-96 MACH III FM (Tomtec). The filter mates were dried at 37° C. in forced air fan incubator and then solid scintilator MeltiLex was melted on filter mates at 90° C. for 5 minutes. Radioactivity was counted in MicroBeta2 scintillation counter (PerkinElmer). Data were fitted to a one-site curve-fitting equation with Prism 6 (GraphPad Software) and Ki values were estimated from the Cheng-Prusoff equation.

human 5-HT2A receptor = human 5-HT2A receptor (Homo sapiens, UniProt P28223); experiment: 5-HT2A receptor binding assay ([3H]-ketanserin radioligand)
Protocol: as §1, §6
5-HT2A Receptor Binding Assay.
Radioligand binding was performed using membranes from CHO K1 cells stably transfected with the human 5-HT2A receptor (PerkinElmer). All assays were carried out in duplicates. 50 μl working solution of the tested compounds, 50 μl [3H]-ketanserin (final concentration 1 nM) and 150 μl diluted membranes (7 μg protein per well) prepared in assay buffer (50 mM Tris, pH 7.4, 4 mM CaCl2, 0.1% ascorbic acid) were transferred to polypropylene 96-well microplate using 96-wells pipetting station Rainin Liquidator (MettlerToledo). Mianserin (10 μM) was used to define nonspecific binding. Microplate was covered with a sealing tape, mixed and incubated for 60 minutes at 27° C. The reaction was terminated by rapid filtration through GF/B filter mate presoaked with 0.5% polyethyleneimine for 30 minutes. Ten rapid washes with 200 μl 50 mM Tris buffer (4° C., pH 7.4) were performed using automated harvester system Harvester-96 MACH III FM (Tomtec). The filter mates were dried at 37° C. in forced air fan incubator and then solid scintilator MeltiLex was melted on filter mates at 90° C. for 5 minutes. Radioactivity was counted in MicroBeta2 scintillation counter (PerkinElmer). Data were fitted to a one-site curve-fitting equation with Prism 6 (GraphPad Software) and Ki values were estimated from the Cheng-Prusoff equation.

5-HT6 receptors [2] = target: T1, 5-HT6 receptors; conditions: cited from earlier work
[3] = antagonist mode, reference agonist α-methylserotonin 30 nM (EC80), read-out: 5-HT2A ANT Kb
[4] = membranes from CHO K1 cells with human 5-HT2A receptor, [3H]-ketanserin 1 nM, read-out: 5-HT2A Ki

T1 sequence (P50406 whole entry): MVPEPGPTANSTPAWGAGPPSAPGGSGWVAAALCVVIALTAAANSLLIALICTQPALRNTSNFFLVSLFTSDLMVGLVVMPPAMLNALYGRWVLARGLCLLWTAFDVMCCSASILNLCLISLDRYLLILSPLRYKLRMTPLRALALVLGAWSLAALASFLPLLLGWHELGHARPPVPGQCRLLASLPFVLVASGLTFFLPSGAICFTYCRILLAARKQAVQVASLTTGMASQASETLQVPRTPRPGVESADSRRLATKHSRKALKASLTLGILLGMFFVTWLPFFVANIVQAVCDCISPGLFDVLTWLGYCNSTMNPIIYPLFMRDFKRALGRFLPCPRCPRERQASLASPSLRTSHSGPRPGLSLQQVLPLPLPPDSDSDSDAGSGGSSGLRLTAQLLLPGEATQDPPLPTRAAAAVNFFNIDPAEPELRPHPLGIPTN
Chain of human GPCR 5-HT6 (P50406 whole entry): as above
Chain of human 5-HT2A receptor (P28223 whole entry): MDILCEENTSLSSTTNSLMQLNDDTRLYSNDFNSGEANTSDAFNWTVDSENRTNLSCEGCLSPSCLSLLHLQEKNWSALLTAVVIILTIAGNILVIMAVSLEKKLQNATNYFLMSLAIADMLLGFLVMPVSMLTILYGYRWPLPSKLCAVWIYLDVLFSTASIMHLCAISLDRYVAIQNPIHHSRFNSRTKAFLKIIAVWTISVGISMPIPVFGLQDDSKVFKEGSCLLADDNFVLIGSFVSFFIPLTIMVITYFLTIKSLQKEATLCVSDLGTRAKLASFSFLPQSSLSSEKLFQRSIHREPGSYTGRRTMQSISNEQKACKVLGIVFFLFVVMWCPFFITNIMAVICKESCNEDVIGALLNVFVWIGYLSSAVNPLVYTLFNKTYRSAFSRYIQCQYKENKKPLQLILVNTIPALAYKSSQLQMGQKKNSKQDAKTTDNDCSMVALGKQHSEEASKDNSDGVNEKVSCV
Chain of human GPCR 5-HT2A (P28223 whole entry): as above

SMILES: Cc1ccc(Cn2c(C(F)(F)F)cc3c(N4CCNCC4)cccc32)s1 [Compound 29, 1-[(5-methylthiophen-2-yl)methyl]-4-(piperazin-1-yl)-2-(trifluoromethyl)-1H-indole]
- Kb (human GPCR 5-HT2A): 9.8 nM
- 5-HT2A AGO EC50 [nM] (human GPCR 5-HT2A): N.C.
- 5-HT6 AGO EC50 [nM] (human GPCR 5-HT6): N.C.
- Kb (human GPCR 5-HT6): 0.051 nM
- Ki (5-HT6 receptors [1]): 0.11 nM
- Ki (human 5-HT2A receptor): 0.37 nM

SMILES: FC(F)(F)c1cc2c(N3CCNCC3)cccc2n1Cc1cccs1 [Compound 30, 4-(piperazin-1-yl)-1-(thiophen-2-ylmethyl)-2-(trifluoromethyl)-1H-indole]
- Kb (human GPCR 5-HT2A): 5.5 nM
- 5-HT2A AGO EC50 [nM] (human GPCR 5-HT2A): N.C.
- 5-HT6 AGO EC50 [nM] (human GPCR 5-HT6): N.C.
- Kb (human GPCR 5-HT6): 0.65 nM
- Ki (5-HT6 receptors [1]): 0.071 nM
- Ki (human 5-HT2A receptor): 0.33 nM

SMILES: FC(F)(F)c1cc2c(N3CCNCC3)cccc2n1Cc1ccsc1 [Compound 31, 4-(piperazin-1-yl)-1-(thiophen-3-ylmethyl)-2-(trifluoromethyl)-1H-indole]
- Kb (human GPCR 5-HT2A): 16 nM
- 5-HT2A AGO EC50 [nM] (human GPCR 5-HT2A): N.C.
- 5-HT6 AGO EC50 [nM] (human GPCR 5-HT6): N.C.
- Kb (human GPCR 5-HT6): 0.2 nM
- Ki (5-HT6 receptors [1]): 0.11 nM
- Ki (human 5-HT2A receptor): 1.5 nM

SMILES: CN1CCN(c2cccc3c2cc(C(F)(F)F)n3Cc2ccsc2)CC1 [Compound 32, 4-(4-methylpiperazin-1-yl)-1-(thiophen-3-ylmethyl)-2-(trifluoromethyl)-1H-indole]
- 5-HT2A AGO EC50 [nM] (human GPCR 5-HT2A): N.C.
- Kb (human GPCR 5-HT2A; [3]): 11 nM
- 5-HT6 AGO EC50 [nM] (human GPCR 5-HT6): N.C.
- Kb (human GPCR 5-HT6): 0.37 nM
- Ki (5-HT6 receptors [1]): 0.061 nM
- Ki (human 5-HT2A receptor; [4]): 2.3 nM

SMILES: CN1CCN(c2cccc3c2cc(C(F)(F)F)n3Cc2cccs2)CC1 [Compound 33, 4-(4-methylpiperazin-1-yl)-1-(thiophen-2-ylmethyl)-2-(trifluoromethyl)-1H-indole]
- 5-HT2A AGO EC50 [nM] (human GPCR 5-HT2A): N.C.
- Kb (human GPCR 5-HT2A; [3]): 9.7 nM
- 5-HT6 AGO EC50 [nM] (human GPCR 5-HT6): N.C.
- Kb (human GPCR 5-HT6): 0.28 nM
- Ki (5-HT6 receptors [1]): 0.069 nM
- Ki (human 5-HT2A receptor; [4]): 0.17 nM

SMILES: CC(C)COc1ccc(CNC(=O)N(Cc2ccc(F)cc2)C2CCN(C)CC2)cc1 [pimavanserin]
- affinity for the 5-HT6 receptors (5-HT6 receptors [2]): no affinity
